Measurements reported in US7608587B2, “Exendin 4 polypeptide fragment” (Changzhou Pharmaceutical Factory, priority 2005, dated 2009).

Columns and labels:
[1] = tested on: diabetic animal models; experiment: hypoglycemic activity across the diabetic animal models of examples 3-7 (overall statement); type: in vivo; settings: assays of examples 3, 4, 5, 6, 7
Text: The effect of hypoglycemic levels of the polypeptide in the present invention is validated with the routine methods in the art, such as the experiments of cell biology, the animal experiments, etc. In embodiments of the present invention, in order to overcome the limitations of the experiments in vitro, preferably employed diabetic animal models to assay the effect of hypoglycemic levels, such as db/db II diabetic mice, Goto-Kokizaki (GK) II type rat, diabetic KK mice, alloxan induced diabetic mice. These animal experiments indicate the Exendin 4 polypeptide fragment represented by formula (I) in the present invention, has a continuous effect of sustaining hypoglycemic activity in vivo and can be used for the diabetes treatment. KK type II diabetic mice (purchased from Shanghai Laboratory Animal Center, Chinese Academy of Sciences, China) with 50 g body weight are subjected to fasting for 2 hours, and are divided into four groups. Two groups are injected with 2 μg Exendin 4, the other two groups are injected with 2 μg Exendin 4 polypeptide fragment presented in the invention. Twenty microliter blood samples are obtained from fasted animals at 0, 0.5, 1, 2, 3, 4, 5 and 6 h time points respectively after administration of the test substance. The sustained hypoglycemic activity is analyzed by using the blood sugar assay kit (purchased from Shanghai Institute of Biological Products, China). The corresponding results of the Exendin 4 polypeptide fragments having the sequences of SEQ ID NO. 1, SEQ ID NO. 2, SEQ ID NO. 3, SEQ ID NO. 4, SEQ ID NO. 5, SEQ ID NO. 6, SEQ ID NO. 7, SEQ ID NO. 8, SEQ ID NO. 9, SEQ ID NO. 10, SEQ ID NO. 11 and SEQ ID NO. 12 are shown in FIG. 7, FIG. 2, FIG. 12, FIG. 17, FIG. 22, FIG. 27, FIG. 32, FIG. 37, FIG. 42, FIG. 47, FIG. 52 and FIG. 57 respectively. The db/db II diabetic mice (purchased from Shanghai Laboratory Animal Center, Chinese Academy of Sciences and Yangzhou University, China) with 50 g body weight are subjected to fasting for 2 hours, the test animals were administrated by subcutaneous injection of Exendin 4 polypeptide fragment in a dose of 2 μg. 20 μl blood samples were obtained from fasted animals at 0, 0.5, 1 and 2 hours time points respectively after administration of the test substance. The sustained hypoglycemic activity is analyzed by using the blood sugar assay kit (purchased from Shanghai Institute of Biological Products, China). The corresponding results of the Exendin 4 polypeptide fragments having the sequences of SEQ ID NO. 1, SEQ ID NO. 2, SEQ ID NO. 3, SEQ ID NO. 4, SEQ ID NO. 5, SEQ ID NO. 6, SEQ ID NO. 7, SEQ ID NO. 8, SEQ ID NO. 9, SEQ ID NO. 10, SEQ ID NO. 11 and SEQ ID NO. 12 are shown in FIG. 8, FIG. 3, FIG. 13, FIG. 18, FIG. 23, FIG. 28, FIG. 33, FIG. 38, FIG. 43, FIG. 48, FIG. 53, FIG. 58 respectively. Five-month-old (body weight 470 g) Goto Kokizaki diabetic rat (purchased from Shanghai Laboratory Animal Center, Chinese Academy of Sciences, China) are taken for the operative procedure. After subjecting to fasting for 2 hours, the test animals were administrated by intraperitoneal injection of 20% glucose in a dose of 1 ml and by subcutaneous injection of Exendin 4 polypeptide fragment in a dose of 5 μg. The control group received only glucose. Twenty microliter blood samples were obtained from fasted animals at 0, 0.5, 1 and 2 hours time points respectively after administration of the test substance. The sustained hypoglycemic activity is determined by using the blood sugar assay kit (purchased from Shanghai Institute of Biological Products, China). The curve 1 indicates the control group. The curve 2 indicates the administration group. Eight-week-old (20 g body weight) mice are taken for the operative procedure. Experimental diabetes in mice was induced by (16 mg/ml) 0.1 ml alloxan by tail vein injection. Animals are divided into five groups. 48 hours later, 2 μg Exendin 4 polypeptide fragment was injected. […]

[2] = tested on: Goto Kokizaki II rats; experiment: insulin secretion stimulation in Goto Kokizaki II rats (ELISA); type: in vivo, rat; settings: 5 μg subcutaneous, 0-45 minutes
Procedure: Six-month-old (470 g body weight) Goto Kokizaki II rats were taken for the operative procedure. The test animals were administrated by subcutaneous injection of Exendin 4 polypeptides in a dose of 5 μg, while the animals of control group only achieved physiological saline solution. 20 μl of blood samples were obtained from fasted animals at 0, 3, 5, 10, 15, 30 and 45 minutes time points respectively after administration of the test substance.

| Substance | hypoglycemic activity (in words) [1] | insulin secretion of the test group [2] |
| --- | --- | --- |
| SEQ ID NO. 62: solid phase Exendin 4 polypeptide variant of example 8; sequence not printed in the text (HGEGTYTSNLSKQMEEEAVKLFIEWLKNGGP; Exendin 4 polypeptide fragment) | significant hypoglycemic activity | recovered |
| SEQ ID NO. 70: solid phase Exendin 4 polypeptide variant of example 8; sequence not printed in the text (HGEGTYTSNLSKQLEEEAVKLFIEWLKNGGP; Exendin 4 polypeptide fragment) | significant hypoglycemic activity | recovered |
| SEQ ID NO. 66: solid phase Exendin 4 polypeptide variant of example 8; sequence not printed in the text (HGEGTYTSNLSKQIEEEAVKLFIEWLKNGGP; Exendin 4 polypeptide fragment) | significant hypoglycemic activity | recovered |
| SEQ ID NO. 64: solid phase Exendin 4 polypeptide variant of example 8; sequence not printed in the text (HGEGTYTSNLSKQMEEEAVKLFIEWLKNGP; Exendin 4 polypeptide fragment) | significant hypoglycemic activity | recovered |
| SEQ ID NO. 69: solid phase Exendin 4 polypeptide variant of example 8; sequence not printed in the text (HGEGTFTSNLSKQLEEEAVKLFIEWLKNGGP; Exendin 4 polypeptide fragment) | significant hypoglycemic activity | recovered |
| SEQ ID NO. 67: solid phase Exendin 4 polypeptide variant of example 8; sequence not printed in the text (HGEGTFTSNLSKQIEEEAVKLFIEWLKNGP; Exendin 4 polypeptide fragment) | significant hypoglycemic activity | recovered |
| SEQ ID NO. 72: solid phase Exendin 4 polypeptide variant of example 8; sequence not printed in the text (HGEGTYTSNLSKQLEEEAVKLFIEWLKNGP; Exendin 4 polypeptide fragment) | significant hypoglycemic activity | recovered |
| SEQ ID NO. 71: solid phase Exendin 4 polypeptide variant of example 8; sequence not printed in the text (HGEGTFTSNLSKQLEEEAVKLFIEWLKNGP; Exendin 4 polypeptide fragment) | significant hypoglycemic activity | recovered |
| SEQ ID NO. 65: solid phase Exendin 4 polypeptide variant of example 8; sequence not printed in the text (HGEGTFTSNLSKQIEEEAVKLFIEWLKNGGP; Exendin 4 polypeptide fragment) | significant hypoglycemic activity | recovered |
| SEQ ID NO. 68: solid phase Exendin 4 polypeptide variant of example 8; sequence not printed in the text (HGEGTYTSNLSKQIEEEAVKLFIEWLKNGP; Exendin 4 polypeptide fragment) | significant hypoglycemic activity | recovered |
